The text below walks through data of ChEMBL document CHEMBL3991601, “The target landscape of clinical kinase drugs” (Science, 2017).

The source made the active and inactive calls. Cut-off read from the data, not from the text of the source, for most assays here: actives have a measured Kd and inactives only a lower limit. Bounds are passed on as bounds.

For assay [1], the target named is Dual specificity protein kinase CLK1 (Homo sapiens, UniProt P49759).
The target in another assay is Wee1-like protein kinase (Homo sapiens, UniProt P30291).
Assay [2] has as its target T1, Bifunctional phosphoribosylaminoimidazole carboxylase/phosphoribosylaminoimidazole succinocarboxamide synthetase (Homo sapiens, UniProt P22234).
T1 sequence (P22234 whole entry): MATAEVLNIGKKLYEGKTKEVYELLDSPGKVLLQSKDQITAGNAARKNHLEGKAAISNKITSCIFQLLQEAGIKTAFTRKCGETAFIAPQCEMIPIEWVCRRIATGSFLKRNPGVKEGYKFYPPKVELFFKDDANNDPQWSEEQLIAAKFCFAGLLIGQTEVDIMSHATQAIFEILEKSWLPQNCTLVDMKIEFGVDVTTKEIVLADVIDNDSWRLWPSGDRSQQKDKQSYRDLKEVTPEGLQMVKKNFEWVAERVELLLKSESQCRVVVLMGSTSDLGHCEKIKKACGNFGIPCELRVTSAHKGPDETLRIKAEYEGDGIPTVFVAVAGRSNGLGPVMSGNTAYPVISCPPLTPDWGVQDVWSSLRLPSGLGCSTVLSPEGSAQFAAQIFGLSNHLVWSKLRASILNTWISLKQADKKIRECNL

The target of assay [3] is T2, Mitogen-activated protein kinase kinase kinase kinase 3 (Homo sapiens, UniProt Q8IVH8).
T2 sequence (Q8IVH8 whole entry): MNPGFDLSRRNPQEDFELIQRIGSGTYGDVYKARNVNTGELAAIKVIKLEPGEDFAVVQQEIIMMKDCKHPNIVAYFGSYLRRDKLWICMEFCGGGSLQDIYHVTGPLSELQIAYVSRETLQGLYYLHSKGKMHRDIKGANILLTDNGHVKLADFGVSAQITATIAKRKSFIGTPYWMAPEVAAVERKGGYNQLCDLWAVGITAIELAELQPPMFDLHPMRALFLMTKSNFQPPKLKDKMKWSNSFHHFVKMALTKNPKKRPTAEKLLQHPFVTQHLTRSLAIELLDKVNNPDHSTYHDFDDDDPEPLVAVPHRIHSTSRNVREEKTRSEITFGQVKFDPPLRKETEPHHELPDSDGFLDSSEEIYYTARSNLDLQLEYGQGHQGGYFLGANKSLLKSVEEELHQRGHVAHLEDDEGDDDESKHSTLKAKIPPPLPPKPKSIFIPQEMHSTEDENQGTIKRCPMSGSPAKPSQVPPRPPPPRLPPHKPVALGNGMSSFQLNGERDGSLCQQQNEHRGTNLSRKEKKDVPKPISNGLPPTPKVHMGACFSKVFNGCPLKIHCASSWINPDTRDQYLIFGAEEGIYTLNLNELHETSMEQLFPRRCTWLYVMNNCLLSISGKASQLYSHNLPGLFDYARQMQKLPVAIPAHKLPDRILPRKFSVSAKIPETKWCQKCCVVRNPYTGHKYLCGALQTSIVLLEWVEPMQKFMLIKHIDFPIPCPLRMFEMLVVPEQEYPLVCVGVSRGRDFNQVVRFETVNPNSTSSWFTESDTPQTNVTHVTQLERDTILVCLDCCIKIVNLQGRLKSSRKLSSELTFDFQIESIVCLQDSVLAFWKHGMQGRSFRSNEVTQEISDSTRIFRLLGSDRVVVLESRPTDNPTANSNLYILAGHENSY

Assay [4] deals with T3, Exosome RNA helicase MTR4 (Homo sapiens, UniProt P42285).
T3 sequence (P42285 whole entry): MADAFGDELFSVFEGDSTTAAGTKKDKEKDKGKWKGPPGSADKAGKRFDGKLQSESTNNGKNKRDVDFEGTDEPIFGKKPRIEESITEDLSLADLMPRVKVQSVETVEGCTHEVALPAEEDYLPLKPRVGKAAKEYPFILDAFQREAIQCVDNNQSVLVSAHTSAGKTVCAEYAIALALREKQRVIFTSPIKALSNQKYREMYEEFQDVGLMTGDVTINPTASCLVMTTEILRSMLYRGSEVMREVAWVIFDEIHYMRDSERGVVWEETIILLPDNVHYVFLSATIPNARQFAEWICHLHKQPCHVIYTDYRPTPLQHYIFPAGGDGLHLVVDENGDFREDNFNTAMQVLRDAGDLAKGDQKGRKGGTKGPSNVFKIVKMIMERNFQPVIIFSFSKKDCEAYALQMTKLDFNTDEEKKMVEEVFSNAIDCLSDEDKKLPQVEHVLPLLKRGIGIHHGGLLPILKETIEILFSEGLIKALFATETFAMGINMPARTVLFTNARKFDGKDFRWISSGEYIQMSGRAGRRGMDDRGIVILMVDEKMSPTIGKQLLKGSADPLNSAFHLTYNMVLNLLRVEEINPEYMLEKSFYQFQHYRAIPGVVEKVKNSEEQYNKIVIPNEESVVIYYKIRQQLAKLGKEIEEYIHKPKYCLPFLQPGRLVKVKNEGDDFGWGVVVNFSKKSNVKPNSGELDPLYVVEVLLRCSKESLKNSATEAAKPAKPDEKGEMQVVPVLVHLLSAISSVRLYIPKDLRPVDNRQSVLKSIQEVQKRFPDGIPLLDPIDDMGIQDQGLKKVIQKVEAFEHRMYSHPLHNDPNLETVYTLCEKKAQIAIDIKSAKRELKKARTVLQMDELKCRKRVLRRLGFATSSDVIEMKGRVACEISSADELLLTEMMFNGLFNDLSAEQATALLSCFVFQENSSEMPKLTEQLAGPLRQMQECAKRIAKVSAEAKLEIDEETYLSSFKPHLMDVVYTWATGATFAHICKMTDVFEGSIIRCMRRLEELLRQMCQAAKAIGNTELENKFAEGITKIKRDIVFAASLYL

The target of assay [5] is MAP kinase-activated protein kinase 2 (Homo sapiens, UniProt P49137).
Assay [6] has as its target T4, Serine/threonine-protein kinase ULK3 (Homo sapiens, UniProt Q6PHR2).
T4 sequence (Q6PHR2 whole entry): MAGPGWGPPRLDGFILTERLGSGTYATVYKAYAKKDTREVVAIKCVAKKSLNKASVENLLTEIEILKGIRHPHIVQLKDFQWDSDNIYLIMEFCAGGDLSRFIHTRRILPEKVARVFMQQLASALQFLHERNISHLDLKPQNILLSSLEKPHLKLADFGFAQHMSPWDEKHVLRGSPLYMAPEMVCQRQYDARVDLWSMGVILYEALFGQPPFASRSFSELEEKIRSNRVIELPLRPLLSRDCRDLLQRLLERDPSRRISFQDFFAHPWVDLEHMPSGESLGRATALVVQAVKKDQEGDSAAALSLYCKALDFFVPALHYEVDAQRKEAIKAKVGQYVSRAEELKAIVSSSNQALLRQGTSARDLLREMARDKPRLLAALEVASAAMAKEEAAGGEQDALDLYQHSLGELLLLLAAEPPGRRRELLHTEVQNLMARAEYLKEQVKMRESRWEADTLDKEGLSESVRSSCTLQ
Note: in the data inactive means no Kd found up to 30 µM.

MAP kinase-activated protein kinase 2, sequence (P49137 whole entry): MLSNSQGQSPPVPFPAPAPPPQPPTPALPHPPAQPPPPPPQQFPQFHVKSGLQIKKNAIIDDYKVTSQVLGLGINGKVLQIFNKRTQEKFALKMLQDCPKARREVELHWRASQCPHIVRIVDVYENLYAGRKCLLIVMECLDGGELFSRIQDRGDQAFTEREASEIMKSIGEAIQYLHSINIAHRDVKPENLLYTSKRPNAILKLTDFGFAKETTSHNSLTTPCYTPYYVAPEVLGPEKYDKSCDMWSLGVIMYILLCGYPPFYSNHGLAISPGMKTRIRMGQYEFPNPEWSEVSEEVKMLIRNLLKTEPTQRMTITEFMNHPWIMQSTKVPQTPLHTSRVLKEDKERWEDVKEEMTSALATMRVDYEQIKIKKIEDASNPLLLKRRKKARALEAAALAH
Dual specificity protein kinase CLK1, sequence (P49759 whole entry): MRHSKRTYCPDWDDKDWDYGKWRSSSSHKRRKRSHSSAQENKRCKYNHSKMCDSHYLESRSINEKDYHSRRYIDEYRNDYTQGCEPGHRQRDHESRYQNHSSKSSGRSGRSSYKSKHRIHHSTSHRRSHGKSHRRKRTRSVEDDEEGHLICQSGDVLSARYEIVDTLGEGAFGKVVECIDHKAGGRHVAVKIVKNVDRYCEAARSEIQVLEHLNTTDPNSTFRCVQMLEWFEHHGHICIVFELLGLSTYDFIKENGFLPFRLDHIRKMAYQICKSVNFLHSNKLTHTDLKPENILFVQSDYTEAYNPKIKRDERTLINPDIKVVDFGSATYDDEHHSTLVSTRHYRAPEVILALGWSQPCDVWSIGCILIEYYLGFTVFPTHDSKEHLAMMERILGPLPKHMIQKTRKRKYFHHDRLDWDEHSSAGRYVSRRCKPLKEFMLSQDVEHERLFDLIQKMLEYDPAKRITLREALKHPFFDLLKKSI
Wee1-like protein kinase, sequence (P30291 whole entry): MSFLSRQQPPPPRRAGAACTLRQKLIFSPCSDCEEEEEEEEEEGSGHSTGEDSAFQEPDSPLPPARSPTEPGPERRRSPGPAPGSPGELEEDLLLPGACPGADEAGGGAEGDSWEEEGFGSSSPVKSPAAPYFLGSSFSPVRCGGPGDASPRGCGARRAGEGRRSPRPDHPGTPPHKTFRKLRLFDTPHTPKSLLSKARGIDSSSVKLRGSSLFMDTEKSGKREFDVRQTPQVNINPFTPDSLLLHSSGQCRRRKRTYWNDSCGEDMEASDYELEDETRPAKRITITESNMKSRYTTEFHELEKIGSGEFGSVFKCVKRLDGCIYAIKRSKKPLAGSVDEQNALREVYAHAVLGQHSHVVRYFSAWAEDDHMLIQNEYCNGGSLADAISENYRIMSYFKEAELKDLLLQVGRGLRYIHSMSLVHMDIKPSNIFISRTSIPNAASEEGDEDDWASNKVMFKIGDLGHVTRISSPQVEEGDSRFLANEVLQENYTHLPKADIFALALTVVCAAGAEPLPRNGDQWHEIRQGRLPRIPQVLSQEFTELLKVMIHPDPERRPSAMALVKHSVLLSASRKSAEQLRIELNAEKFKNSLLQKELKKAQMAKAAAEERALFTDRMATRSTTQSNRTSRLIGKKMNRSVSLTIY

For the compound `CCc1cc2c(cc1N1CCC(N3CCOCC3)CC1)C(C)(C)c1[nH]c3cc(C#N)ccc3c1C2=O` [ALECTINIB], the Kd was 29.9 µM (active) in assay [1]; > 30 µM (inactive) at Wee1-like protein kinase; > 30 µM (inactive) in assay [2]; > 30 µM (inactive) in assay [3]; > 30 µM (inactive) in assay [4]; > 30 µM (inactive) in assay [5]. In addition, the Kd in assay [6] was > 30 µM (inactive).
On to `COc1cc2ncnc(Nc3ccc(F)c(Cl)c3)c2cc1NC(=O)/C=C/CN1CCCCC1` [DACOMITINIB ANHYDROUS], for which the Kd (in assay [1]; at Wee1-like protein kinase; in assay [2]; in assay [3]; in assay [4]; in assay [5]) was > 30 µM (inactive) throughout. Further, the Kd in assay [6] is > 30 µM (inactive).
As to `Cc1c(NC(=O)OC[C@@H]2COCCN2)cn2ncnc(Nc3ccc4c(cnn4Cc4cccc(F)c4)c3)c12` [AC-480], the Kd (in assay [1]; at Wee1-like protein kinase; in assay [2]; in assay [3]; in assay [4]; in assay [5]) was > 30 µM (inactive) in each case. Besides, the Kd in assay [6] was > 30 µM (inactive).
Turning to `Cc1cc(-c2cc(OC(=O)c3ccccc3)ccc2Cl)cc2nnc(Nc3ccc(OCCN4CCCC4)cc3)nc12` [TG100-801], the Kd (in assay [1]; at Wee1-like protein kinase; in assay [2]; in assay [3]; in assay [4]; in assay [5]) was > 30 µM (inactive) in each case. Further, the Kd in assay [6] is > 30 µM (inactive).
`COc1cc2nccc(Oc3ccc(NC(=O)C4(C(=O)Nc5ccc(F)cc5)CC4)cc3)c2cc1OC` [CABOZANTINIB]: the Kd (in assay [1]; on Wee1-like protein kinase; in assay [2]; in assay [3]; in assay [4]; in assay [5]) was > 30 µM (inactive) each time. In addition, in assay [6], the Kd was > 30 µM (inactive).
Regarding `Cc1c(Cn2c(C)nc3c(C(=O)O)cc(N4CCOCC4)cc32)cccc1C(F)(F)F` [GSK-2636771], the Kd (in assay [1]; at Wee1-like protein kinase; in assay [2]; in assay [3]; in assay [4]; in assay [5]) was > 30 µM (inactive) in each case. In assay [6], the Kd was > 30 µM (inactive).
Turning to `Cc1cc(Nc2nc(N[C@@H](C)c3ncc(F)cn3)ncc2Cl)n[nH]1` [AZD-1480], the Kd (in assay [1]; on Wee1-like protein kinase; in assay [2]; in assay [3]; in assay [4]; in assay [5]) was > 30 µM (inactive) throughout. In assay [6], the Kd was > 30 µM (inactive).
`Cc1ccc(C(=O)Nc2ccc(Oc3cc4cnn(C)c4cc3-c3cn[nH]c3)c(F)c2)c(=O)n1-c1ccc(F)cc1` [MERESTINIB]: the Kd (in assay [1]; on Wee1-like protein kinase; in assay [2]; in assay [3]; in assay [4]; in assay [5]) was > 30 µM (inactive) each time. Besides, the Kd in assay [6] was > 30 µM (inactive).
Regarding `CNC(=O)c1cc(COc2nnc(Nc3ccc(Cl)cc3)c3ccoc23)ccn1` [TELATINIB], the Kd (in assay [1]; at Wee1-like protein kinase; in assay [2]; in assay [3]; in assay [4]; in assay [5]) was > 30 µM (inactive) each time. For the same compound, in assay [6], the Kd is > 30 µM (inactive).
Regarding `CNC(=O)c1cccc(-c2ccc3c(N4CCOC[C@@H]4C)nc(N4CCOC[C@@H]4C)nc3n2)c1` [VISTUSERTIB], the Kd (in assay [1]; at Wee1-like protein kinase; in assay [2]; in assay [3]; in assay [4]; in assay [5]) was > 30 µM (inactive) each time. Besides, in assay [6], the Kd is > 30 µM (inactive).
Turning to `O=C(NC[C@H](O)CO)c1ccncc1Nc1ccc(I)cc1F` [PIMASERTIB], the Kd (in assay [1]; at Wee1-like protein kinase; in assay [2]; in assay [3]; in assay [4]; in assay [5]) was > 30 µM (inactive) in each case. Moreover, the Kd in assay [6] is > 30 µM (inactive).
With `CC(C)CC(=O)Nc1[nH]nc2c1CN(C(=O)C1CCN(C)CC1)C2(C)C` [PHA-793887], the Kd was 2.18 µM (active) in assay [1]; > 30 µM (inactive) on Wee1-like protein kinase; > 30 µM (inactive) in assay [2]; > 30 µM (inactive) in assay [3]; > 30 µM (inactive) in assay [4]; > 30 µM (inactive) in assay [5]. For the same compound, the Kd in assay [6] is > 30 µM (inactive).
As for `O=C(NOC[C@H](O)CO)c1ccc(F)c(F)c1Nc1ccc(I)cc1F` [MIRDAMETINIB], the Kd (in assay [1]; at Wee1-like protein kinase; in assay [2]; in assay [3]; in assay [4]; in assay [5]) was > 30 µM (inactive) in each case. In addition, in assay [6], the Kd is > 30 µM (inactive).

Usually Kd stands for a measure of binding affinity in units of concentration.
